Molecule *CC(*)(C)C(=O)OCCCCCCCCCCn1c2ccccc2c2cc(/C=C/C3=C(C#N)C(=C(C#N)C#N)OC3(C)C)ccc21 (repeat unit) has a glass transition temperature of 55.00 °C. Molecule */C=C/C(C)C(*)C(=O)OCCCCCCN(C)c1ccc(N(C)C)cc1 (repeat unit) has a glass transition temperature of 2.00 °C. With *Oc1cc(OC(=O)c2ccc(OC)cc2)c(OC(=O)CCCCCCCCCCCCCCC(*)=O)cc1OC(=O)c1ccc(OC)cc1 (repeat unit) the glass transition temperature was 33.00 °C. For *CC(*)c1ccc(OCCC(C)C)cc1 (repeat unit), the glass transition temperature was 57.00 °C. For *Oc1ccc(NC(=O)/C=C/C(=O)NNC(=O)/C=C/C(=O)Nc2ccc(OC(=O)/C=C/C(=O)NNC(=O)/C=C/C(*)=O)cc2)cc1 (repeat unit), the glass transition temperature was 265.00 °C. Work on *C1C(=O)N(c2ccc(O[Si](C)(C)C)cc2)C(=O)C1* (repeat unit) yielded a glass transition temperature of 172.00 °C. *Oc1ccc(S(=O)(=O)c2ccc(Oc3ccc(/C=C4\CCC/C(=C\c5ccc(Oc6ccc(S(=O)(=O)c7ccc(Oc8ccc(C(C)(C)c9ccc(*)cc9)cc8)cc7)cc6)cc5)C4=O)cc3)cc2)cc1 (repeat unit) gave a glass transition temperature of 194.00 °C. *Oc1ccc(CC(NC(=O)Cc2ccc(OC(=O)COCCOCC(*)=O)cc2)C(=O)OCC)cc1 (repeat unit) gave a glass transition temperature of 50.00 °C. In the case of *C(=O)OCCCCOC(=O)c1ccc(NC(=O)c2ccc(N3C(=O)c4ccc(*)cc4C3=O)cc2)cc1 (repeat unit), the glass transition temperature is reported as 130.00 °C. For */C=C/C1CCC(*)C1 (repeat unit), the glass transition temperature was 31.00 °C. Molecule *CC(*)(CC)C(=O)OCC (repeat unit) has a glass transition temperature of 27.00 °C. Molecule *O[Si](C)(CCC(F)(F)F)CCC(F)(F)C(F)(F)C(F)(F)C(F)(F)C(F)(F)C(F)(F)CC[Si](*)(C)CCC(F)(F)F (repeat unit) has a glass transition temperature of -24.00 °C. *CCC(=O)NCc1c(C)c(C)c(CNC(=O)CCO*)c(C)c1C (repeat unit) gave a glass transition temperature of 191.00 °C. In the case of *COC(=O)OCC1OC(C)(C)OC1* (repeat unit), the glass transition temperature is reported as 51.30 °C. In the case of *CC(*)O[N+](=O)[O-] (repeat unit), the glass transition temperature is reported as 37.50 °C. With *CC(*)(C)C(=O)OCCCN(CCO)c1ccc(/N=N/c2ccc([N+](=O)[O-])cc2)cc1 (repeat unit) the glass transition temperature was 131.00 °C. For *c1ccc(Oc2ccc(-c3nc4cc(S(=O)(=O)c5ccc6nc(-c7ccccc7)c(*)nc6c5)ccc4nc3-c3ccccc3)cc2)cc1 (repeat unit), the glass transition temperature was 290.00 °C. Molecule *Oc1ccc(C(CC)(CC)c2ccc(OC(=O)c3ccc(C(*)=O)cc3)cc2)cc1 (repeat unit) has a glass transition temperature of 180.00 °C. *c1ccc2c(c1)C(=O)N(C1CC(C)(C)CC(C)(CN3C(=O)c4ccc(C(*)(C(F)(F)F)C(F)(F)F)cc4C3=O)C1)C2=O (repeat unit) showed a glass transition temperature of 278.00 °C. *c1ccc(Cc2ccc(NC(=O)c3ccc(Oc4cccc5c4C(=O)N(*)C5=O)cc3)cc2)cc1 (repeat unit) showed a glass transition temperature of 258.00 °C. For */C=C/C1CC(*)C([Si](C)(C)C[Si](C)(C)C)C1 (repeat unit), the glass transition temperature was 24.00 °C. For *Oc1ccc(C(=O)Nc2ccccc2-c2ccc(NC(=O)c3ccc(*)cc3)cc2)cc1 (repeat unit), the glass transition temperature was 251.00 °C. *c1ccc(C(c2ccc(N3C(=O)c4ccc(Oc5ccc6c(c5)C(=O)N(*)C6=O)cc4C3=O)cc2)(C(F)(F)F)C(F)(F)F)cc1 (repeat unit) gave a glass transition temperature of 305.00 °C. *CCCCCCCCCCCCCCCCOC(=O)C/C=C/CC(=O)O* (repeat unit) showed a glass transition temperature of -22.00 °C. Work on *Oc1ccc(C(C)(C)c2ccc(Oc3nc(*)nc(Cl)n3)cc2)cc1 (repeat unit) yielded a glass transition temperature of 80.00 °C. */C=C/C1CC(*)C(C#N)(C[Si](C)(C)O[Si](C)(C)C)C1 (repeat unit) showed a glass transition temperature of 68.00 °C. For *Oc1ccc(S(=O)(=O)c2ccc(Oc3c(C)cc(C(c4cc(C)c(*)c(C)c4)(C(F)(F)F)C(F)(F)F)cc3C)cc2C(OC)(C(F)(F)F)C(F)(F)F)c(C(OC)(C(F)(F)F)C(F)(F)F)c1 (repeat unit), the glass transition temperature was 163.00 °C.
